Source: US8778929B2, “Substituted heteroaryl inhibitors of B-RAF” (Boehringer Ingelheim International GmbH, priority 2008, dated 2014)

Molecular target: B-Raf (V600E)-kinase (Homo sapiens, UniProt P15056, V600E)
Assay: Kinase test B-Raf (V600E)
Type: biochemical
Settings: 100% = no inhibition, 0% = total inhibition, read-out: % CTL (residual activity of the enzyme relative to DMSO control); for remaining activity at 2 µM: compound concentration 2 μM
Procedure: In a dilution series 10 μL of test substance solution are placed in a multiwell plate. The dilution series is selected so that generally a range of concentrations of 2 μM to 0.119 nM or 0.017 nM is covered. If necessary the initial concentration of 2 μM is changed to 50 μM, 10 μM or 0.4 μM or 0.2857 μM and further dilution is carried out accordingly. The final concentration of DMSO is 5%. 10 μL of the B-Raf (V600E)-kinase solution are pipetted in (containing 0.5 ng B-Raf (V600E)-kinase in 20 mM Tris-HCl pH 7.5, 0.1 mM EDTA, 0.1 mM EGTA, 0.286 mM sodium orthovanadate, 10% glycerol, 1 mg/mL bovine serum albumin, 1 mM dithiothreitol) and the mixture is incubated for 1 h at RT under with shaking The kinase reaction is started by the addition of 20 μL ATP solution [final concentration: 250 μM ATP, 30 mM Tris-HCl pH 7.5, 0.02% Brij, 0.2 mM sodium orthovanadate, 10 mM magnesium acetate, 0.1 mM EGTA, phosphatase cocktail (Sigma, # P2850, dilution recommended by the manufacturer), 0.1 mM EGTA] and 10 μL MEK1 solution [containing 50 ng biotinylated MEK1 (prepared from purified MEK1 according to standard procedure, e.g. with EZ-Link Sulpho-NHS-LC-Biotin reagent, Pierce, # 21335) and carried out for 60 min at RT with constant shaking. The reaction is stopped by the addition of 12 μL of a 100 mM EDTA solution and incubation is continued for a further 5 min. 55 μL of the reaction solution are transferred into a streptavidin-coated plate (e.g. Streptawell HighBond, Roche, #11989685001) and shaken gently for 1 h at RT, in order to bind biotinylated MEK1 to the plate. After elimination of the liquid the plate is washed five times with 200 μL of 1×PBS and 100 μL solution of primary antibody plus europium-labelled secondary antibody [Anti Phospho-MEK (Ser217/221), Cell Signaling, # 9121 and Eu-N1 labeled goat-anti-rabbit antibody, Perkin Elmer, #AD0105], the primary antibody is diluted 1:2000 and the secondary antibody is diluted to 0.4-0.5 μg/mL in Delfia Assay Buffer (Perkin Elmer, #1244-111). After 1 h shaking at RT the solution is poured away and washed five times with 200 μL Delfia Wash Buffer (Perkin Elmer, #4010-0010/#1244-114). After the addition of 200 μL Enhancement Solution (Perkin Elmer, #4001-0010/#1244-105) the mixture is shaken for 10 min at RT and then measured in a Wallac Victor using the program “Delfia Time Resolved Fluorescence (Europium)”. IC50 values are obtained from these dosage-activity curves using a software program (GraphPadPrizm).
A value of 100% indicates no inhibition while a value of 0% indicates total inhibition. The % CTL values denote the residual activity of the enzyme after the addition of the inhibitory compound in the solvent DMSO in relation to the enzyme activity in the solvent DMSO without the addition of a compound (control). The values were determined using the B-Raf(V600E)-kinase test described above.

Chain of B-Raf (V600E)-kinase (P15056 whole entry V600E): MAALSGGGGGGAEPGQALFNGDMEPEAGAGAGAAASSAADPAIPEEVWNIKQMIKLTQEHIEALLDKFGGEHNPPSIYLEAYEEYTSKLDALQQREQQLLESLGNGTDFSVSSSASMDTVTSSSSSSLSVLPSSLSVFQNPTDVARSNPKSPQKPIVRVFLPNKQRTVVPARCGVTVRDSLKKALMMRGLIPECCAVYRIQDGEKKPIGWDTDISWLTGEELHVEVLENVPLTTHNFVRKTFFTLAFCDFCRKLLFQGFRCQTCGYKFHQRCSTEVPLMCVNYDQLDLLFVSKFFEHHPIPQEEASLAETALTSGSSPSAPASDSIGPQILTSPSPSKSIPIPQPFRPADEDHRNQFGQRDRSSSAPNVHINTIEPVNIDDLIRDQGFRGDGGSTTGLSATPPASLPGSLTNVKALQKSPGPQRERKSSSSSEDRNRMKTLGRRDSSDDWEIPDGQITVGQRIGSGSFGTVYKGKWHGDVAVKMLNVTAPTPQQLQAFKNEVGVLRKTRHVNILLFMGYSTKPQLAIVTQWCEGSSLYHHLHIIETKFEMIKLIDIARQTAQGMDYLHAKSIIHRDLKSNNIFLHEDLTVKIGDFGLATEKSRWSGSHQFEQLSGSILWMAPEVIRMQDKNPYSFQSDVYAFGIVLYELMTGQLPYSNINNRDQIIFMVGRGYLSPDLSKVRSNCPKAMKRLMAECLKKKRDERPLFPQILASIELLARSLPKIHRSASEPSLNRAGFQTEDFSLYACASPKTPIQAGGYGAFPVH

CCNc1cc(NC(=O)c2cnc(C)c(-n3cc(-c4cnn(C)c4C)nn3)c2)cc(C(F)(F)F)c1 [Example I-75]
remaining activity at 2 µM: 7.3%

CCC(C)N1CC=C(c2cc(NC(=O)c3cnc(C)c(-n4cc(-c5cnn(C)c5C)nn4)c3)cc(C(F)(F)F)c2C)CC1 (stereo not shown) [Example I-99]
remaining activity at 2 µM: 1.9%

Cc1ncc(C(=O)Nc2cc(Br)cc(C(F)(F)F)c2)cc1-n1cc(-c2cnn(C)c2C)nn1 [Example I-62]
remaining activity at 2 µM: 2.8%

Cc1ncc(C(=O)Nc2cc(C(C)(C)C)on2)cc1-n1cc(-c2cncc(N3CCN(C(C)(C)C)CC3)c2)nn1 [Example I-167]
remaining activity at 2 µM: 7.9%

COc1cncc(-c2cn(-c3cc(C(=O)Nc4cc(N5CCN(C)CC5)c(F)c(C(F)(F)F)c4)cnc3C)nn2)c1 [Example I-25]
remaining activity at 2 µM: 2.2%

Cc1ncc(C(=O)Nc2cc(CN3CCCC3)c(Cl)c(C(F)(F)F)c2)cc1-n1cc(-c2cncs2)nn1 [Example I-127]
remaining activity at 2 µM: 6.1%

CCC(CC)N1CCN(c2cncc(-c3cn(-c4cc(C(=O)Nc5cc(C(C)(C)C)on5)cnc4C)nn3)c2)CC1 [Example I-204]
remaining activity at 2 µM: 1%

Cc1ncc(C(=O)Nc2cc(C(C)(C)C)on2)cc1-n1cc(-c2cncc(CN3CCN(C)CC3)c2)nn1 [Example I-186]
remaining activity at 2 µM: 1.5%

Cc1ncc(C(=O)Nc2cc(C(C)C)no2)cc1-n1cc(-c2cncc(N3CCN(C(C)C)CC3)c2)nn1 [Example I-154]
remaining activity at 2 µM: 2.9%

CCOCCN1CCN(c2cncc(-c3cn(-c4cc(NC(=O)c5cccc(OC(F)(F)F)c5)cnc4C)nn3)c2)CC1 [XII-54]
remaining activity at 2 µM: 10.8%

Cc1ncc(NC(=O)c2cc(OC(F)(F)F)cc(N(C)C3CCN(C)C3)c2)cc1-n1cc(-c2cnn(C)c2C)nn1 (stereo not shown) [XII-28]
remaining activity at 2 µM: 2%

Cc1ncc(C(=O)Nc2cnn(C(C)C)c2C)cc1-n1cc(-c2cncc(N3CCN(C(C)C)CC3)c2)nn1 [Example I-151]
remaining activity at 2 µM: 4.5%

Cc1ncc(C(=O)Nc2cc(C(C)(C)C)on2)cc1-n1cc(-c2cncc(CN3CCCC3)c2)nn1 [Example I-185]
remaining activity at 2 µM: 1.7%

Cc1cn2c(-c3cn(-c4cc(NC(=O)c5cc(N6CCN(C)CC6)c(C)c(C(F)(F)F)c5)cnc4C)nn3)cnc2cn1 [XII-18]
remaining activity at 2 µM: 2.1%

Cc1ncc(NC(=O)c2cccc(C(C)(C)C#N)c2)cc1-n1cc(-c2cncc(N(C)CCN(C)C)c2)nn1 [XII-53]
remaining activity at 2 µM: 7%

Cc1ncc(C(=O)Nc2cc(CNCC(C)C)c(Cl)c(C(F)(F)F)c2)cc1-n1cc(-c2cnn(C)c2C)nn1 [Example I-55]
remaining activity at 2 µM: 1.2%

Cc1ncc(C(=O)Nc2cc(C(C)(C)C)on2)cc1-n1cc(-c2cncc(N(C)C3CCN(C(C)C)CC3)c2)nn1 [Example I-200]
remaining activity at 2 µM: 1%

Cc1ncc(C(=O)Nc2cc(CN3CCCC3)c(C)c(C(F)(F)F)c2)cc1-n1cc(-c2cnn(C)c2C)nn1 [Example I-130]
remaining activity at 2 µM: 2.2%

COc1ccc(C(=O)Nc2cnc(C)c(-n3cc(-c4cnn(C)c4C)nn3)c2)cc1C(F)(F)F [XII-7]
remaining activity at 2 µM: 4.7%

COCCN1CCN(c2cncc(-c3cn(-c4cc(C(=O)Nc5cc(C(C)(C)C)on5)cnc4C)nn3)c2)CC1 [Example I-135]
remaining activity at 2 µM: 2.6%

COc1cncc(-c2cn(-c3cc(C(=O)Nc4cc(CN5CCCC5)cc(C(F)(F)F)c4)cnc3C)nn2)c1 [Example I-91]
remaining activity at 2 µM: 2.5%

COc1ccc(C(=O)Nc2cnc(C)c(-n3cc(-c4cncc(N5CCN(C(C)(C)C)CC5)c4)nn3)c2)cc1C(F)(F)F [XII-45]
remaining activity at 2 µM: 2.9%

Cc1ncc(C(=O)Nc2cc(C3=CCN(CC4CC4)CC3)c(C)c(C(F)(F)F)c2)cc1-n1cc(-c2cnn(C)c2C)nn1 [Example I-98]
remaining activity at 2 µM: 3%

CCN1CCN(c2cc(NC(=O)c3cnc(C)c(-n4cc(-c5ccc(NC(C)=O)nc5)nn4)c3)cc(C(F)(F)F)c2C)CC1 [Example I-47]
remaining activity at 2 µM: 2%

Cc1ncc(NC(=O)c2cc(OC(F)(F)F)cc(N3CCN(C)CC3)c2)cc1-n1cc(-c2cnn(C)c2C)nn1 [XII-15]
remaining activity at 2 µM: 0.8%

COCCN(C)Cc1cc(NC(=O)c2cnc(C)c(-n3cc(-c4cnn(C)c4C)nn3)c2)cc(C(F)(F)F)c1 [Example I-109]
remaining activity at 2 µM: 1.8%

CCOCCN1CCN(c2cncc(-c3cn(-c4cc(NC(=O)c5ccc(OC)c(C(F)(F)F)c5)cnc4C)nn3)c2)CC1 [XII-44]
remaining activity at 2 µM: 1.9%

Cc1ncc(C(=O)Nc2cn(C(C)C)nn2)cc1-n1cc(-c2cncc(N3CCN(C(C)C)CC3)c2)nn1 [Example I-149]
remaining activity at 2 µM: 2.1%

CCOCCN1CCN(c2cncc(-c3cn(-c4cc(NC(=O)c5cc(C(F)(F)F)ccn5)cnc4C)nn3)c2)CC1 [XII-33]
remaining activity at 2 µM: 1.7%

CC(=O)Nc1ncc(-c2cn(-c3cc(NC(=O)c4cc(OC(F)(F)F)cc(N5CCN(C)CC5)c4)cnc3C)nn2)s1 [XII-19]
remaining activity at 2 µM: 6.5%

Cc1ncc(C(=O)Nc2cc(N3CCN(C(C)C)CC3)cc(C(F)(F)F)c2)cc1-n1cc(-c2cnn(C)c2C)nn1 [Example I-58]
remaining activity at 2 µM: 5.5%

C=CCN1CCN(c2cncc(-c3cn(-c4cc(C(=O)Nc5cc(C(C)(C)C)on5)cnc4C)nn3)c2)CC1 [Example I-174]
remaining activity at 2 µM: 8.1%

COc1c(CN2CCCC2)cc(C(F)(F)F)cc1NC(=O)c1cnc(C)c(-n2cc(-c3cnn(C)c3C)nn2)c1 [Example I-104]
remaining activity at 2 µM: 2.1%

CCN1CCN(c2cc(OC(F)(F)F)cc(C(=O)Nc3cnc(C)c(-n4cc(-c5cnn(C)c5C)nn4)c3)c2)CC1 [XII-22]
remaining activity at 2 µM: 3.4%

Cc1cn2c(-c3cn(-c4cc(C(=O)Nc5cc(N6CCN(C)CC6)cc(C(F)(F)F)c5)cnc4C)nn3)cnc2cn1 [Example I-45]
remaining activity at 2 µM: 3.2%

CC(=O)Nc1ncc(-c2cn(-c3cc(C(=O)Nc4cc(CN5CCCC5)cc(C(F)(F)F)c4)cnc3C)nn2)s1 [Example I-15]
remaining activity at 2 µM: 1.4%

Cc1ncc(C(=O)Nc2cc(C(F)(F)F)cc(N3CCCCC3)c2C)cc1-n1cc(-c2cnn(C)c2C)nn1 [Example I-114]
remaining activity at 1.02 µM (measurement at 1.02 μM (**)): 15.6%

Cc1ncc(C(=O)Nc2cc(C(F)(F)F)cc(N3CCCOCC3)c2C)cc1-n1cc(-c2cnn(C)c2C)nn1 [Example I-118]
remaining activity at 2 µM: 2.6%

Cc1ncc(C(=O)Nc2cc(C(C)(C)C)on2)cc1-n1cc(-c2cncc(N3CCN(CC(C)C)CC3)c2)nn1 [Example I-171]
remaining activity at 2 µM: 7.7%

Cc1ncc(C(=O)Nc2cc(CNC3CC3)cc(C(F)(F)F)c2)cc1-n1cc(-c2cnn(C)c2C)nn1 [Example I-111]
remaining activity at 2 µM: 1.8%

Cc1ncc(C(=O)Nc2cc(OC(F)(F)F)cc(N3CCN(C)CC3)c2)cc1-n1cc(-c2cncnc2)nn1 [Example I-124]
remaining activity at 2 µM: 1.9%

Cc1ncc(NC(=O)c2cc(N3CCN(C)CC3)cc(C(F)(F)F)c2)cc1-n1cc(-c2cnn(C)c2C)nn1 [XII-1]
remaining activity at 2 µM: 4.4%

Cc1ccc(C(F)(F)F)cc1NC(=O)c1cnc(C)c(-n2cc(-c3cnn(C)c3C)nn2)c1 [Example I-8]
remaining activity at 2 µM: 1.6%

Cc1ncc(C(=O)Nc2ccnc(C(C)(C)C)c2)cc1-n1cc(-c2cncc(N3CCN(C)CC3)c2)nn1 [Example I-178]
remaining activity at 2 µM: 2.3%

CCN1CCN(c2cc(NC(=O)c3cnc(C)c(-n4cc(-c5cncnc5)nn4)c3)cc(C(F)(F)F)c2C)CC1 [Example I-20]
remaining activity at 2 µM: 1.9%

Cc1ncc(C(=O)Nc2cc(C(C)(C)C)on2)cc1-n1cc(-c2cncc(N3CCN(CCCO)CC3)c2)nn1 [Example I-168]
remaining activity at 2 µM: 9.8%
